According to ChEMBL document CHEMBL1914365, “Aminoacyl-tRNA synthetase inhibitors as potential antibiotics” (Eur J Med Chem, 2011):
pEC50, pIC50, pKi: −log10 of the molar value. In brackets after ≈: the same amount, converted by molar mass. Blank lines part the entries; values can stand above or below the compound they belong to.

Legend:
Staphylococcus = assay: Antibacterial activity against Staphylococcus aureus; format: functional
[1] = Inhibition of Trypanosoma brucei Leucyl-tRNA synthetase
Trypanosoma brucei = assay: Antitrypanosomal activity against Trypanosoma brucei assessed as growth inhibition; format: functional, organism-based
[2] = test system: Staphylococcus epidermidis; assay: Antibacterial activity against Staphylococcus epidermidis; format: functional
Staphylococcus aureus [3] = assay: Antibacterial activity against mupirocin or oxacillin-resistant Staphylococcus aureus; format: functional
[4] = Inhibition of Staphylococcus aureus Methionyl-tRNA synthetase
Streptococcus pyogenes = assay: Antibacterial activity against Streptococcus pyogenes; format: functional
[5] = Inhibition of Escherichia coli Methionyl-tRNA synthetase
Staphylococcus aureus [6] = assay: Antibacterial activity against methicillin-resistant Staphylococcus aureus; format: functional
Escherichia coli = assay: Antibacterial activity against Escherichia coli; format: functional
Isoleucine--tRNA ligase = Isoleucine--tRNA ligase (Escherichia coli K-12, UniProt P00956); assay: Competitive inhibition of Escherichia coli Isoleucyl-tRNA synthetase
Sequence of Isoleucine--tRNA ligase (P00956 whole entry): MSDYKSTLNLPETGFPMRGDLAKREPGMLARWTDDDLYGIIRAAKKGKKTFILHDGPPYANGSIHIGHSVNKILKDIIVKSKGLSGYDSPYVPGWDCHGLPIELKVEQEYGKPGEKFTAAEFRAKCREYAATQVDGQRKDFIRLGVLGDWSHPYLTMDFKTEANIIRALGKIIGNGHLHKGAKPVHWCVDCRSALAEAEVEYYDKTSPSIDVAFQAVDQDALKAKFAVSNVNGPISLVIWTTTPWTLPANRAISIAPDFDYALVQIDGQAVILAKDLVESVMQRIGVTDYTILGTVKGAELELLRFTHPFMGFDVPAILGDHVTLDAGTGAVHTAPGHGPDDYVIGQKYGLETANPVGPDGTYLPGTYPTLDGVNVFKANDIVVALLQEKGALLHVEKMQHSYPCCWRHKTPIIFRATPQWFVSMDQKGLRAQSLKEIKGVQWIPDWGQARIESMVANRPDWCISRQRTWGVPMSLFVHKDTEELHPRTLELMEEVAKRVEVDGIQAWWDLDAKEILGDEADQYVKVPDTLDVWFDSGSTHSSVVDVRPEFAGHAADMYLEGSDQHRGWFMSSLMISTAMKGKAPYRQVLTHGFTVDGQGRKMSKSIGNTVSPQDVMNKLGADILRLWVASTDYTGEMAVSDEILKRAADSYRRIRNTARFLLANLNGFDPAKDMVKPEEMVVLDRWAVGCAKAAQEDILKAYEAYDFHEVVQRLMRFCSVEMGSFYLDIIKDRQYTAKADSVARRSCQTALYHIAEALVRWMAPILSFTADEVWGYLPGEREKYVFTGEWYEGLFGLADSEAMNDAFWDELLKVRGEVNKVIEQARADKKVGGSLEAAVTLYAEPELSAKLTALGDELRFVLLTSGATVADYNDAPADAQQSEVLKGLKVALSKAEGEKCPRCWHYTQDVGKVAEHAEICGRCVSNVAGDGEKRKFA

Structure (SMILES): O=C1OCC(NNc2ccc([N+](=O)[O-])cc2)=C1c1ccc(Br)cc1
MIC50 (Staphylococcus): 0.42 µg/mL (≈ 1.08 µM)

Structure (SMILES): CCOC(=O)COc1ccc2c(c1)B(O)OC2
pIC50 [1]: 5.80

Structure (SMILES): CC(=O)C(C)(C)Oc1ccc2c(c1)B(O)OC2
pEC50 (Trypanosoma brucei): 6.43

Structure (SMILES): C=C(F)c1sc(CNCCCNc2cc(=O)c3ccccc3[nH]2)c(C)c1Br [BEDEROCIN]
MIC90 (Staphylococcus aureus [3]): 0.5 µg/mL (≈ 1.11 µM)
pKi [4]: 11.00
MIC (Streptococcus pyogenes): 0.03 µg/mL (≈ 0.0666 µM)
pKi [5]: 6.52

Structure (SMILES): C/C(=C\C(=O)OCCCCCCCCC(=O)O)C[C@@H]1OC[C@H](C[C@@H]2O[C@H]2[C@@H](C)[C@H](C)O)[C@@H](O)[C@H]1O [MUPIROCIN]
MIC (Staphylococcus aureus [6]): 0.25 µg/mL (≈ 0.499 µM)
MIC (Escherichia coli): 128 µg/mL (≈ 256 µM)
pKi (Isoleucine--tRNA ligase): 8.60

Next, values leading:

MIC50 [2]: 6.25 µM (≈ 2.88 µg/mL)
Structure (SMILES): CC(C)C[C@H](NC(=O)[C@H](CC(C)C)N1C[C@@H](CNC(=O)Nc2ccccc2)NC1=O)C(=O)O

MIC50 [2]: 25 µM (≈ 11.6 µg/mL)
Structure (SMILES): CC(C)C[C@H](NC(=O)[C@H](CC(C)C)N1C[C@@H](CNC(=O)Nc2ncccn2)NC1=O)C(=O)O

MIC50 [2]: 100 µM (≈ 48.3 µg/mL)
Structure (SMILES): CC(C)C[C@H](NC(=O)[C@H](CC(C)C)N1C[C@@H](CNS(=O)(=O)c2ccccc2)NC1=O)C(=O)O
